Test results as given in paper PMC7114444 (Virus Research, 2014).
“Also recorded” adds a separate entry of the source.

Tests used:
[1] = test system: NFAT3-GFP; assay: NFAT-GFP nuclear translocation assay; format: cell-based; settings: HeLa cells, 40 nM drug, 2 μM ionomycin
[2] = test system: HCoV-NL63; assay: HCoV-NL63 replication in Caco-2 cells, qPCR of genome equivalents; format: cell-based; settings: Human coronavirus NL63, Caco-2, 48 h, read-out: Inhibition of HCoV-NL63 in CaCo-2 EC50
[3] = test system: HCoV-NL63 N-protein; assay: Western blot of N protein expression in HCoV-NL63-infected CaCo-2 cells; format: cell-based; settings: for N-protein expression at 20 μM: 48 h, 20 μM inhibitor
[4] = test system: lymphocyte; settings: lymphocyte proliferation assays, ref Sadeg et al., 1993a, 1993b; cited from earlier work

Compound | NFAT-GFP nuclear translocation [1] | EC50 [2] [nM] | N-protein expression at 20 μM [3] | concentration above which N protein is not detectable any more ([3]; discussion statement) | concentration at which N protein decreased ([3]; discussion statement) [µM] | immunosuppressive activity relative to CsA activity [4]
C/C=C/C[C@@H](C)[C@@H](O)[C@H]1C(=O)N[C@@H](CC)C(=O)N(C)[C@H](C)C(=O)N(CC)[C@@H](C(C)C)C(=O)N[C@@H](C(C)C)C(=O)N(C)[C@@H](CC(C)C)C(=O)N[C@@H](C)C(=O)N[C@H](C)C(=O)N(C)[C@@H](CC(C)C)C(=O)N(C)[C@@H](CC(C)C)C(=O)N(C)[C@@H](C(C)C)C(=O)N1C [ALV, Alisporivir] | allow NFAT-GFP translocation to the nucleus; also recorded: NFAT migrated to the nucleus | 800 | not detectable any more | above 5 μM | 1.25 | –
C/C=C/C[C@@H](C)[C@@H](O)[C@H]1C(=O)N[C@@H](C(C)C)C(=O)N(C)CC(=O)N(C)[C@@H](CC(C)C)C(=O)N[C@@H](C(C)C)C(=O)N(C)[C@@H](CC(C)C)C(=O)N[C@@H](C)C(=O)N[C@H](C)C(=O)N(C)[C@@H](CC(C)C)C(=O)N(C)[C@@H](CC(C)C)C(=O)N(C)[C@@H](C(C)C)C(=O)N1C [CsD] | NFAT is not transferred to the nucleus; also recorded: showed the same behavior as CsA; also recorded: remained in the cytoplasm | – | – | – | – | about 10%
C=CC[C@@H]1/C=C(\C)C[C@H](C)C[C@H](OC)[C@H]2O[C@@](O)(C(=O)C(=O)N3CCCC[C@H]3C(=O)O[C@H](/C(C)=C/[C@@H]3CC[C@@H](O)[C@H](OC)C3)[C@H](C)[C@@H](O)CC1=O)[C@H](C)C[C@@H]2OC [FK506] | NFAT is not transferred to the nucleus; also recorded: remained in the cytoplasm | 6600 | – | – | – | –
C/C=C/C[C@@H](C)[C@@H](O)[C@H]1C(=O)N[C@@H](CC)C(=O)N(C)CC(=O)N(C)[C@@H]([C@@H](C)CC)C(=O)N[C@@H](C(C)C)C(=O)N(C)[C@@H](CC(C)C)C(=O)N[C@@H](C)C(=O)N[C@H](C)C(=O)N(C)[C@@H](CC(C)C)C(=O)N(C)[C@@H](CC(C)C)C(=O)N(C)[C@@H](C(C)C)C(=O)N1C [NIM811] | allow NFAT-GFP translocation to the nucleus; also recorded: NFAT migrated to the nucleus | 800 | not detectable any more | above 5 μM | – | –
